One data set has as its system Rhizoctonia solani. The experiment in a line: Test B: turf brown patch on bentgrass seedlings, sprayed the day before inoculation, visual disease rating. Format: in vivo. The following applies: 200 ppm, 100 = 100% disease control. An excerpt: General protocol for preparing test suspensions for Tests A-J: The test compounds were first dissolved in acetone in an amount equal to 3% of the final volume and then suspended at the desired concentration (in ppm) in acetone and purified water (50/50 mix) containing 250 ppm of the surfactant Trem® 014 (polyhydric alcohol esters). The resulting test suspensions were then used in tests A-J. Spraying a 200 ppm test suspension to the point of run-off on the test plants was the equivalent of a rate of 500 g/ha. […] The test suspension was sprayed to the point of run-off on bentgrass (Agrostis sp.) seedlings. […] A dash (-) indicates no test results. All results are for 200 ppm except where followed by “*”, which indicates 40 ppm.

The next data set deals with Septoria nodorum. The experiment in a line: Test F: wheat glume blotch on wheat seedlings, sprayed the day before inoculation, visual disease rating. To be noted: 100 = 100% disease control; for pest or weed control at 200 ppm / Test F disease control rating: 200 ppm. The format is in vivo. The gist of the method:
(§1)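 Ratings reflect a 200 ppm spray (≈500 g/ha) unless marked as 40 ppm. Plants were sprayed to run-off. The spray suspension was acetone/purified water 50/50 containing 250 ppm Trem 014, after first dissolving compound in acetone at 3% of final volume.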

In another data set the test system is Alternaria solani. As to the kind of experiment: Test D: tomato early blight, sprayed the day before inoculation, visual disease rating. The format is in vivo. The following applies: 100 = 100% disease control; for pest or weed control at 200 ppm / Test D disease control rating: 200 ppm. In outline:
as §1

The test system of another data set is Septoria tritici. The experiment in a line: Test G: wheat leaf blotch on wheat seedlings, sprayed the day before inoculation, visual disease rating. Format: in vivo. To be noted: 100 = 100% disease control; for pest or weed control at 200 ppm / Test G disease control rating: 200 ppm. In outline: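 Spray to run-off, 200 ppm (≈500 g/ha; starred = 40 ppm), acetone/water 50/50 + 250 ppm Trem® 014. Spore inoculation +1 d. 24° C saturated 48 h → 20° C 19 d. Visual rating.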

A further data set deals with Botrytis cinerea. As to the kind of experiment: Test C: tomato Botrytis on tomato seedlings, sprayed the day before inoculation, visual disease rating. The following applies: 100 = 100% disease control; for pest or weed control at 200 ppm / Test C disease control rating: 200 ppm. The format is in vivo. The gist of the method: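 Disease scored by eye on tomato seedlings inoculated with Botrytis cinerea a day after treatment. Treatment was a run-off spray at 200 ppm (equivalent to 500 g/ha), or 40 ppm where marked, in acetone/water carrying 250 ppm Trem 014.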

Data set [1] relates to Erysiphe graminis f. sp. tritici. As to the kind of experiment: Test J: wheat powdery mildew on wheat seedlings, sprayed the day before inoculation, visual disease rating. To be noted: 100 = 100% disease control; for pest or weed control at 200 ppm / Test J disease control rating: 200 ppm. The format is in vivo. In outline: as §1
Data set [2] concerns Puccinia recondita f. sp. tritici. As to the kind of experiment: Test I: wheat leaf rust on wheat seedlings, sprayed the day before inoculation, visual disease rating. Format: in vivo. To be noted: 100 = 100% disease control; for pest or weed control at 200 ppm / Test I disease control rating: 200 ppm. The gist of the method:
as §1

The next data set concerns Phytophthora infestans. The format is in vivo. The following applies: 200 ppm, 100 = 100% disease control.
A further data set concerns Plasmopara viticola. The experiment in a line: Test A: grape downy mildew, test suspension sprayed after inoculation of grape seedlings, visual disease rating. Format: in vivo. To be noted: 200 ppm, 100 = 100% disease control. An excerpt:
General protocol for preparing test suspensions for Tests A-J: The test compounds were first dissolved in acetone in an amount equal to 3% of the final volume and then suspended at the desired concentration (in ppm) in acetone and purified water (50/50 mix) containing 250 ppm of the surfactant Trem® 014 (polyhydric alcohol esters). The resulting test suspensions were then used in tests A-J. Spraying a 200 ppm test suspension to the point of run-off on the test plants was the equivalent of a rate of 500 g/ha. […] Grape seedlings were inoculated with a spore suspension of Plasmopara viticola (the causal agent of grape downy mildew) and incubated in a saturated atmosphere at 20° C. for 24 h. After a short drying period, the grape seedlings were sprayed with the test suspension to the point of run-off and then moved to a growth chamber at 20° C. for 5 days, after which time the grape seedlings were placed back into a saturated atmosphere at 20° C. for 24 h. Upon removal, visual disease ratings were made. […] A dash (-) indicates no test results.

Where [3] appears, read: 0 = no control relative to controls.
Setting [4] is: Parastagonospora nodorum, 264 h, 0 = no control relative to controls.
The mark [5] stands for this setting: Alternaria solani, 168 h, 0 = no control relative to controls.
The mark [6] stands for this setting: Zymoseptoria tritici, 504 h, 0 = no control relative to controls.
Setting [7] is: Botrytis cinerea, 120 h, 0 = no control relative to controls.
The mark [8] stands for this setting: Blumeria graminis, 168 h, 0 = no control relative to controls.
[9] abbreviates: Puccinia recondita, 168 h, 0 = no control relative to controls.

This is an account of results in US20110045101A1, “FUNGICIDAL SUBSTITUTED AZOLES” (E.I. Du Pont De Nemours and Company, priority 2009, published 2011).

Where two headings read alike, the source gives them in different places.

Broadly, the pest or weed control is the degree to which the test organism was suppressed or injured, in per cent. Read a low pest or weed control as a weak effect. By melting point is commonly meant the temperature, or range, at which the solid turns liquid. As for `Cc1nc(Cl)c(-c2c(F)cccc2F)n1-c1ccc(Cl)cc1` [Compound 2, 4-chloro-1-(4-chlorophenyl)-5-(2,6-difluorophenyl)-2-methyl-1H-imidazole], the melting point is 143 to 145 °C. Moreover, the “Test B disease control rating” value in the data set on Rhizoctonia solani (setting [3]) worked out at 65%. Further, the pest or weed control at 200 ppm in the data set on Septoria nodorum (setting [4]) stood at 100%. This compound displayed a pest or weed control at 200 ppm with Alternaria solani (setting [5]) of 100%. Also, in the data set with Septoria tritici (setting [6]), the pest or weed control at 200 ppm came to 100%. In the data set on Botrytis cinerea (setting [7]), this compound gave a pest or weed control at 200 ppm of 99%. This compound gave a pest or weed control at 200 ppm in data set [1] (setting [8]) of 100%. In [2] (setting [9]), this compound registered a pest or weed control at 200 ppm of 100%.
Compound `Fc1cc(F)c(-c2c(Cl)nc(Cl)n2-c2ccc(Cl)cc2)c(F)c1` [Compound 6, 2,4-dichloro-1-(4-chlorophenyl)-5-(2,4,6-trifluorophenyl)-1H-imidazole] gave a melting point of 112 to 119 °C. In the data set with Rhizoctonia solani (setting [3]), the “Test B disease control rating” value came out at 99%. The pest or weed control at 200 ppm in the data set on Septoria nodorum (setting [4]) was determined as 95%. For the same compound, the pest or weed control at 200 ppm in the data set on Alternaria solani (setting [5]) turned out to be 100%. For the same compound, the “Test E disease control rating” value in the data set on Phytophthora infestans (setting [3]) is recorded as 0%. For the same compound, in the data set on Septoria tritici (setting [6]), the pest or weed control at 200 ppm stood at 100%. This compound had a pest or weed control at 200 ppm with Botrytis cinerea (setting [7]) of 99%. Moreover, in [1] (setting [8]), the pest or weed control at 200 ppm came to 100%. The “Test A disease control rating” value with Plasmopara viticola (setting [3]) amounted to 0%. This compound also registered a pest or weed control at 200 ppm in [2] (setting [9]) of 100%.
In turn, `Fc1cc(F)c(-c2c(Cl)ncn2-c2ccc(Cl)cc2)c(F)c1` [Compound 1, 4-chloro-1-(4-chlorophenyl)-5-(2,4,6-trifluorophenyl)-1H-imidazole] registered a melting point of 102 to 104 °C. In the data set on Septoria nodorum (Parastagonospora nodorum, 264 h, 40 ppm (marked *)), this compound yielded a pest or weed control at 40 ppm of 0%. This compound also returned a pest or weed control at 40 ppm in the data set with Alternaria solani (Alternaria solani, 168 h, 40 ppm (marked *)) of 94%. In the data set on Septoria tritici (Zymoseptoria tritici, 504 h, 40 ppm (marked *)), the pest or weed control at 40 ppm worked out at 93%. In addition, the pest or weed control at 40 ppm with Botrytis cinerea (Botrytis cinerea, 120 h, 40 ppm (marked *)) turned out to be 99%. This compound yielded a pest or weed control at 40 ppm in data set [1] (Blumeria graminis, 168 h, 40 ppm (marked *)) of 99%. Also, the pest or weed control at 40 ppm in [2] (Puccinia recondita, 168 h, 40 ppm (marked *)) was found to be 16%.
Compound `Fc1cccc(F)c1-c1c(Cl)nc(Cl)n1-c1ccc(Cl)cc1` [Compound 3, 2,4-dichloro-1-(4-chlorophenyl)-5-(2,6-difluorophenyl)-1H-imidazole] gave a melting point of 123 to 125 °C. Also, in the data set on Rhizoctonia solani (setting [3]), the “Test B disease control rating” value was found to be 99%. This compound registered a pest or weed control at 200 ppm in the data set on Septoria nodorum (setting [4]) of 99%. In the data set on Alternaria solani (setting [5]), this compound displayed a pest or weed control at 200 ppm of 100%. In the data set with Septoria tritici (setting [6]), this compound yielded a pest or weed control at 200 ppm of 100%. The pest or weed control at 200 ppm in the data set on Botrytis cinerea (setting [7]) stood at 99%. Besides, in data set [1] (setting [8]), the pest or weed control at 200 ppm amounted to 100%. Besides, the pest or weed control at 200 ppm in data set [2] (setting [9]) came to 99%.
For `Cc1nn(C)c(-c2ccc(Cl)c(F)c2)c1-c1c(F)cccc1F` [compound 67], the “Test B disease control rating” value in the data set on Rhizoctonia solani (setting [3]) amounted to 98%. Moreover, in the data set on Septoria nodorum (setting [3]), the “Test F disease control rating” value was determined as 0%. Also, the “Test D disease control rating” value in the data set with Alternaria solani (setting [3]) was 99%. Further, in the data set with Phytophthora infestans (setting [3]), the “Test E disease control rating” value is listed as 0%. Moreover, the “Test G disease control rating” value in the data set on Septoria tritici (setting [3]) stood at 80%. For the same compound, in the data set with Botrytis cinerea (setting [3]), the “Test C disease control rating” value is on record as 44%. For the same compound, the “Test J disease control rating” value in [1] (setting [3]) is reported as 99%. For the same compound, the “Test A disease control rating” value in the data set on Plasmopara viticola (setting [3]) worked out at 7%. The “Test I disease control rating” value in [2] (setting [3]) is 0%.
With `COc1cc(F)c(-c2c(-c3ccc(Cl)cc3)c(OC)nn2C)c(F)c1` [compound 578], the “Test B disease control rating” value in the data set on Rhizoctonia solani (setting [3]) is reported as 58%. In addition, the “Test F disease control rating” value in the data set with Septoria nodorum (setting [3]) was found to be 0%. Moreover, the “Test D disease control rating” value in the data set with Alternaria solani (setting [3]) was determined as 37%. Further, the “Test E disease control rating” value in the data set on Phytophthora infestans (setting [3]) came out at 0%. Also, the “Test G disease control rating” value in the data set on Septoria tritici (setting [3]) was 100%. Besides, the “Test C disease control rating” value with Botrytis cinerea (setting [3]) is listed as 98%. Moreover, in data set [1] (setting [3]), the “Test J disease control rating” value was 98%. Besides, in the data set on Plasmopara viticola (setting [3]), the “Test A disease control rating” value came out at 0%. The “Test I disease control rating” value in [2] (setting [3]) is 74%.
As for `Fc1cc(-n2cnc(Cl)c2-c2c(F)cccc2Cl)ccc1Cl` [compound 192], the “Test B disease control rating” value in the data set with Rhizoctonia solani (0 = no control) was determined as 21%. The “Test F disease control rating” value in the data set with Septoria nodorum (0 = no control) stood at 0%. Besides, in the data set with Alternaria solani (0 = no control), the “Test D disease control rating” value was found to be 16%. Also, the “Test E disease control rating” value in the data set on Phytophthora infestans (0 = no control) was 0%. Further, in the data set on Septoria tritici (0 = no control), the “Test G disease control rating” value is given as 94%. Besides, in the data set with Botrytis cinerea (0 = no control), the “Test C disease control rating” value came to 99%. Besides, in data set [1] (0 = no control), the “Test J disease control rating” value was 99%. For the same compound, in the data set on Plasmopara viticola (0 = no control), the “Test A disease control rating” value is on record as 0%. In addition, the “Test I disease control rating” value in [2] (0 = no control) was found to be 84%.
In the case of `Cc1ncc(-c2ccc(F)cc2)n1-c1ccc(Cl)cc1` [Compound 4, 1-(4-chlorophenyl)-5-(4-fluorophenyl)-2-methyl-1H-imidazole], the “Test B disease control rating” value with Rhizoctonia solani (setting [3]) was 18%. The pest or weed control at 200 ppm is 0% in the data set on Septoria nodorum (setting [4]); 0% in the data set on Alternaria solani (setting [5]); 93% with Septoria tritici (setting [6]); 67% in the data set with Botrytis cinerea (setting [7]); 94% in data set [1] (setting [8]); 79% in data set [2] (setting [9]). In addition, the “Test E disease control rating” value in the data set with Phytophthora infestans (setting [3]) came to 0%. The “Test A disease control rating” value in the data set on Plasmopara viticola (setting [3]) turned out to be 0%.
Consider “2-bromo-1-(4-chlorophenyl)-5-(2,6-difluorophenyl)-2-methyl-1H-imidazole [Compound 740]”, for which, in the data set on Rhizoctonia solani (setting [3]), the “Test B disease control rating” value was 99%. For the same compound, the “Test F disease control rating” value with Septoria nodorum (setting [3]) worked out at 100%. Besides, the “Test D disease control rating” value in the data set on Alternaria solani (setting [3]) was 100%. In the data set on Phytophthora infestans (setting [3]), the “Test E disease control rating” value is 0%. Also, the “Test G disease control rating” value with Septoria tritici (setting [3]) came to 100%. Further, the “Test C disease control rating” value with Botrytis cinerea (setting [3]) was determined as 100%. The “Test J disease control rating” value in data set [1] (setting [3]) is 100%. Also, in the data set on Plasmopara viticola (setting [3]), the “Test A disease control rating” value is listed as 37%. For the same compound, the “Test I disease control rating” value in [2] (setting [3]) stood at 100%.
